Values of other authors in patent publication US20070238698A1, “Method for manufacturing drinking water having chitosan” (Hsien-Chih Lin, priority 2006, published 2007).

What was measured:
Details in all cases: added to drinking water; experiments to animals
enteric microflora = system: enteric microflora
inoculated tumors = system: inoculated tumors
[1] = system: huge corrosion cell having ability of immunity

chitosan oligosaccharide
effect on enteric microflora of animals (enteric microflora): improve the enteric microflora of animals | effect on inoculated tumors (inoculated tumors): reduced the inoculated tumors | effect on huge corrosion cell having ability of immunity [1]: increase the huge corrosion cell having ability of immunity
